≈ marks a conversion by molar mass, not a printed value. Like-named read-outs stand apart in the source and are kept apart here.
Tests used:
M. tuberculosis H37Rv [1] = assay: MIC determination, resazurin-based microplate assay; assay type: cell-based, Mycobacterium tuberculosis; settings: Mycobacterium tuberculosis, single drug
M. tuberculosis H37Rv [2] = assay: In vitro bactericidal-effect analysis (CFU enumeration of checkerboard wells); assay type: cell-based, Mycobacterium tuberculosis; settings: single drug at its MIC (FIC of 1); positive = reduction in CFU
Protocol: For determining the extent of the bactericidal effect, sample wells which remained blue in the resazurin microtiter assay (REMA) and whose ΣFICs were within the synergistic-to-additive range (<0.7 for doublets and <1.5 for triplets) were plated on Middlebrook 7H10 agar medium and incubated at 37°C for 21 to 28 days, following which bacterial colonies were enumerated to obtain the net reduction in CFU in comparison to the counts for the untreated controls at the start of drug testing, as well as to that achieved when M. tuberculosis was exposed to each drug alone.

[3] = In vivo pharmacokinetics in infected mice (plasma, LC-MS/MS); parameters: species or system BALB/c mice; settings: mouse; for AUC(0-t) / Cmax: po, steady state, infected mice
Protocol: The drugs were formulated in 0.5% hydroxypropyl methyl cellulose (HPMC)–0.1% Tween 80 suspensions as 3- or 4-drug combinations. Formulations were prepared by weighing and adding each compound to the bottle, according to the design. Formulation vehicle was added, and the suspension was stirred overnight. Only uniform suspensions were used, while those that precipitated were abandoned. Formulations were prepared every week, and compound stability was estimated at the end of the week. Pharmacokinetics (PK) analysis was performed on infected mice on the 20th day of dosing. Blood samples were collected from each mouse at 0.5, 2, 4, 6, and 24 h after compound administration. Blood samples of about 30 μl were collected from mice in all groups by serial sampling via the saphenous vein into Microvette CB300 tubes (Starstedt, Germany) coated with EDTA, and plasma (10 μl) was separated following centrifugation. Plasma samples were stored at –20°C until analysis using liquid chromatography-tandem mass spectrometry (LC-MS/MS).
A 1-mg/ml stock solution of each compound was prepared in dimethyl sulfoxide (DMSO) for all of the analytes except PZA and LZD, for which the stock solution was 10 mg/ml in DMSO, and RIF, for which the stock solution was prepared in 50% acetonitrile in water. Three different sets of calibration standard (CS) combinations were prepared by 2-fold dilution of the stock solutions. CS set 1 contained analytes CLO, BDQ, PA824, PZA, and SQ109, CS set 2 contained analytes BTZ043, MXF, THI, EMB, and PZA, and CS set 3 contained LZD, INH, RIF, and PZA. A 16-point calibration curve was utilized for all analytes, and the standard curves ranged from 0.0005 to 20 μg/ml except for PZA and LZD, for which the standard curve range was 0.006 to 200 μg/ml. Plasma samples were precipitated by adding chilled acetonitrile (1:10, vol/vol) containing carbamazepine as an internal standard (10 ng/ml). Samples were vortexed and then centrifuged at 4,000 rpm for 30 min at 10°C. The resulting supernatant was mixed with the mobile phase (50% acetonitrile in water with 0.1% formic acid). Five microliters of the sample was injected on to a liquid chromatographic system (Acquity ultraperformance liquid chromatography [UPLC] system, Waters, Milford, MA) coupled to a triple-quadrupole mass spectrometer (Xevo TQ-S; Waters, Milford, MA). Samples were separated on an LC column (ACE 3 C18, 50 by 4.6 mm, 3 μm particle size; Advanced Chromatography Technologies, Aberdeen, Scotland) by isocratic elution with 40 parts of 20 mM ammonium formate containing 0.1% (vol/vol) formic acid and 60 parts of acetonitrile at a flow rate of 0.5 ml/min with a run time of 4 min. Samples were acquired in positive ion mode and detected by multiple reaction monitoring (MRM). The concentrations of the analyte were determined from a standard curve obtained by plotting known concentrations of the analyte against peak area ratios (analyte/internal standard peak response).
PK analyses of the plasma concentration-time relationships were performed with Phoenix software (version 6.2; Pharsight, USA). A noncompartmental analysis program, model 200, was used to calculate PK parameters. The maximum concentration of drug in plasma (Cmax), time to Cmax (Tmax), elimination half-life (t1/2), and area under the concentration-time curve (AUC) from time zero to infinity (AUC0–∞) were estimated. AUC was computed using the trapezoidal rule (linear up and log down), and the AUC0–∞ was considered only when the extrapolated AUC was not more than 20% of the original value. A minimum of three sample points in the terminal slope were used to calculate half-life.

[4] = tested individually; SQ109 at 25 mg/kg of body weight, EMB at 100-mg/kg dose; cited from earlier work

In the case of `CC[C@@H](CO)NCCN[C@@H](CC)CO` [Ethambutol], the MIC (M. tuberculosis H37Rv [1]) is reported as 19.6 µM (≈ 4.01 µg/mL), the “ΔLog10 CFU/ml at the MIC” value (M. tuberculosis H37Rv [2]) is reported as 1.40 Log10 CFU/ml and the AUC ([3]; BALB/c, plasma, oral, SQ109 25 mg/kg, EMB 100 mg/kg, in 3- and 4-drug combinations, read-out: observed AUC in combinations) is reported as 4000 to 9900 ng·h/mL. The AUC(0-t) ([3]; BALB/c, plasma, 25 mg/kg, Group 5 triplet EMB 100/BDQ 25/SQ109 25 mg/kg oral, read-out: AUC0-24 in Triplet) was 4100 ± 1400 ng·h/mL, the Cmax ([3]; BALB/c, plasma, 25 mg/kg, Group 5 triplet EMB 100/BDQ 25/SQ109 25 mg/kg oral, read-out: Cmax in Triplet) was 1300 ± 600 ng/mL and the AUC(0-t) ([3]; BALB/c, plasma, 100 mg/kg, Group 8 triplet PA824 50/BDQ 25/EMB 100 mg/kg oral, read-out: AUC0-24 in Triplet) was 9900 ± 1600 ng·h/mL. The Cmax ([3]; BALB/c, plasma, 100 mg/kg, Group 8 triplet PA824 50/BDQ 25/EMB 100 mg/kg oral, read-out: Cmax in Triplet) was 2700 ± 200 ng/mL, the AUC(0-t) ([3]; BALB/c, plasma, 100 mg/kg, Ref. regimen triplet INH 30/RIF 10/EMB 100 mg/kg oral, read-out: AUC0-24 in Triplet) was 7900 ± 2800 ng·h/mL and the Cmax ([3]; BALB/c, plasma, 100 mg/kg, Ref. regimen triplet INH 30/RIF 10/EMB 100 mg/kg oral, read-out: Cmax in Triplet) was 2200 ± 500 ng/mL. The AUC(0-t) ([3]; BALB/c, plasma, 130 mg/kg, Group 9 triplet EMB 100/SQ109 25/LZD 130 mg/kg oral, read-out: AUC0-24 in Triplet) was 9600 ± 1600 ng·h/mL, the Cmax ([3]; BALB/c, plasma, 130 mg/kg, Group 9 triplet EMB 100/SQ109 25/LZD 130 mg/kg oral, read-out: Cmax in Triplet) was 1100 ± 200 ng/mL and the AUC(0-t) ([3]; BALB/c, plasma, 150 mg/kg, Group 5 quartet EMB 100/BDQ 25/SQ109 25/PZA 150 mg/kg oral, read-out: AUC0-24 in Quartet) was 4000 ± 1100 ng·h/mL. The Cmax ([3]; BALB/c, plasma, 150 mg/kg, Group 5 quartet EMB 100/BDQ 25/SQ109 25/PZA 150 mg/kg oral, read-out: Cmax in Quartet) was 1200 ± 500 ng/mL, the AUC(0-t) ([3]; BALB/c, plasma, 150 mg/kg, Group 8 quartet PA824 50/BDQ 25/EMB 100/PZA 150 mg/kg oral, read-out: AUC0-24 in Quartet) was 5700 ± 1100 ng·h/mL and the Cmax ([3]; BALB/c, plasma, 150 mg/kg, Group 8 quartet PA824 50/BDQ 25/EMB 100/PZA 150 mg/kg oral, read-out: Cmax in Quartet) was 1500 ± 300 ng/mL. The AUC(0-t) ([3]; BALB/c, plasma, 150 mg/kg, Ref. regimen quartet INH 30/RIF 10/EMB 100/PZA 150 mg/kg oral, read-out: AUC0-24 in Quartet) was 6600 ± 1800 ng·h/mL, the Cmax ([3]; BALB/c, plasma, 150 mg/kg, Ref. regimen quartet INH 30/RIF 10/EMB 100/PZA 150 mg/kg oral, read-out: Cmax in Quartet) was 1700 ± 600 ng/mL and the “plasma exposure in combination compared with individual (reported) exposure” value ([3]; in vivo) was “lower”. The “reported AUC” value [4] was 28000 ng·h/mL.

Source: PMC4538536, “In Silico-Based High-Throughput Screen for Discovery of Novel Combinations for Tuberculosis Treatment” (Antimicrobial Agents and Chemotherapy, 2015)
